This note sets out measurements from patent US20230141284A1, “CANCER THERAPEUTIC METHOD” (ONO PHARMACEUTICAL CO., LTD., priority 2020, published 2023).

Common to all, as to assay type: cell-based
For test [1], the system named is IRF (Interferon Regulatory Factor) pathway. Kind of test: Effect on IRF (Interferon Regulatory Factor) pathway, Quanti-luc reporter cells. To be noted: activation of the IRF pathway, luminescence, about 24 hours incubation. As to the method:
The cells mainly described at lines 12-20 of the right column on page 183 in Mol Immunol. 2017, Vol. 90, p. 182-189 were suspended in RPMI medium to prepare 2×10^6 cells/mL of cell suspension. 50 μL of the cell suspensions were dispensed into a 96-well plate, to which 50 μL of 6 to 20,000 nmol/L compound solutions were added. After adding the compound, the mixture thereof was incubated at 37° C. for about 24 hours. After incubation, 10 μL of cell suspensions were collected from each well, which were mixed with 50 μL of Quanti-luc (Invivogen). Then, the activation of the IRF pathway was measured by detecting luminescence using a microplate reader (Molecular Devices).

For test [2], the system named is human acute myeloid leukemia cell lines. Put plainly: Anti-tumor effect on human acute myeloid leukemia cell lines (Cell Counting Kit-8). As to conditions: administration alone, 100 to 1000 nmol/L, 48 hours. As for the experimental part: The compound prepared in Example 3 (Compound B) was evaluated for anti-tumor activity against several human acute myeloid leukemia cell lines shown in the table of FIG. 13.
The cell lines above were suspended in medium (RPMI 1640 containing 10% FBS and 1% Penicillin-Streptomycin), respectively, and seeded into 96-well plates at a density of 5.0×10^4 cells/well. Immediately after seeding, mediums containing Compound B and Vehicle (0.1% at the final concentration of DMSO solution after addition to the medium), respectively, were added to each well and mixed well. The final concentration of Compound B after addition to the medium was prepared to be 100 to 1000 nmol/L, respectively. After culturing the cell lines for 48 hours at 37° C. and 5% CO2, 10 μL of Cell Counting Kit-8 (Dojindo) was added to each well, and after incubation for 60 minutes, the absorbance (450 nm) in each well was measured using a microplate reader. EC50 value was calculated from the absorbance value using Graphpad prism (Graphpad Software) to evaluate the effect of Compound B on cell proliferation. […] Relative cell count was calculated according to the following formula. Relative minimum cell count represents the minimum value of the above values.
Relative cell count (%)=(Absorbance (450 nm) in addition of Compound B−blank)/(Absorbance (450 nm) in addition of Vehicle (0.1% DMSO)−blank)×100 [Formula 1]
For orientation: Tetrazolium assays rely on reduction of a dye to a coloured formazan, in cell work by metabolically active cells.

Test [3] concerns human acute myeloid leukemia cell lines (KG-1α, THP-1 and CMK). Put plainly: Anti-tumor effects in combination with anti-neoplastic agents, human acute myeloid leukemia cell lines. To be noted: combination with Compound B 10 to 1000 nmol/L, 48 hours, absorbance 450 nm. As to the method: (§1) The anti-tumor effects of the STING agonistic compounds pertaining to the present invention and combination thereof with anti-neoplastic agents were evaluated on several human acute myeloid leukemia cell lines (KG-1α, THP-1 and CMK) and human B-cell lymphoma cell lines (DOHH2 and OLI-Ly3) below.
The cell lines above were suspended in medium (RPMI 1640 containing 10% FBS and 1% Penicillin-Streptomycin), respectively, and seeded into 96-well plates at a density of 2.5 to 5×10^4 cells/well. Immediately after seeding, mediums containing Compound B prepared, respectively, such that the final concentrations after addition to the mediums become 0, 10, 30, 100, 300, and 1000 nmol/L and anti-neoplastic agents prepared such that those become the following final concentrations, respectively, were added to each well and mixed well. As a control, DMSO solution prepared such that the final concentration becomes 0.10% after addition to the medium was added thereto, separately. • Venetoclax (final concentrations: 0, 1, 10, 100, 1000, and 10000 nmol/L, respectively), • Cytarabine (final concentrations: 0, 1, 10, 100, 1000, and 10000 nmol/L, respectively), • Azacitidine (final concentrations: 0, 1, 10, 100, 1000, and 10000 nmol/L, respectively), and • Navitoclax (final concentrations: 0, 50, 500, and 5000 nmol/L, respectively) (the concentration of Compound B in combination with Navitoclax is 1000 nmol/L).
After culturing the cell lines for 48 hours at 37° C. and 5% CO2, 10 μL of Cell Counting Kit-8 (Dojindo) was added to each well, and after incubation for 60 minutes, the absorbance (450 nm) in each well was measured using a microplate reader. FIGS. 13, 14, and 15 show results thereof, respectively. In the figures, the “signal intensity” on the vertical axis represents the absorbance value (450 nm), and the lower the value, the higher the anti-tumor effect.

The subject of test [4] is human B-cell lymphoma cell lines (DOHH2 and OLI-Ly3). Kind of test: Anti-tumor effects in combination with Navitoclax, human B-cell lymphoma cell lines. To be noted: combination with Compound B 1000 nmol/L, DOHH2 and OLI-Ly3, 48 hours. As for the experimental part: as §1
The cell lines above were suspended in medium (RPMI 1640 containing 10% FBS and 1% Penicillin-Streptomycin), respectively, and seeded into 96-well plates at a density of 2.5 to 5×10^4 cells/well. Immediately after seeding, mediums containing Compound B prepared, respectively, such that the final concentrations after addition to the mediums become 0, 10, 30, 100, 300, and 1000 nmol/L and anti-neoplastic agents prepared such that those become the following final concentrations, respectively, were added to each well and mixed well. […]
After culturing the cell lines for 48 hours at 37° C. and 5% CO2, 10 μL of Cell Counting Kit-8 (Dojindo) was added to each well, and after incubation for 60 minutes, the absorbance (450 nm) in each well was measured using a microplate reader. […] In the figures, the “signal intensity” on the vertical axis represents the absorbance value (450 nm), and the lower the value, the higher the anti-tumor effect.

Each structure is given as a SMILES string.

Take `CC(=O)c1cc(-c2ncc(-c3cn[nH]c3)c3onc(N)c23)c(F)cc1N` [Example 3, 1-(2-amino-5-(3-amino-7-(1H-pyrazol-4-yl)isoxazolo[4,5-c]pyridin-4-yl)-4-fluorophenyl)ethan-1-one]: the concentration for a half-maximal effect (EC50) in test [1] is 0.04 µM. In test [2], the “anti-tumor effect (cell proliferation)” value is reported as “significant anti-tumor effect”. For the same compound, in test [3], the “anti-tumor activity of Azacitidine” value is “enhanced”, the “anti-tumor activity of Cytarabine” value is on record as “enhanced” and the “anti-tumor activity of Venetoclax” value is given as “enhanced”. The “anti-tumor activity of Navitoclax” value in test [4] is on record as “enhanced”.

One may read the EC50 as the concentration at which the effect is half-maximal.
